Drawing on patent US20060069123A1, “Substituted dipiperidine CCR2 antagonists” (priority 2004, published 2006), this text covers IC50 and inhibition for 35 compounds.

The experiment deals with T1, CCR2 (Homo sapiens, UniProt P41597).
T1 sequence (P41597 1-360 isoform P41597-2): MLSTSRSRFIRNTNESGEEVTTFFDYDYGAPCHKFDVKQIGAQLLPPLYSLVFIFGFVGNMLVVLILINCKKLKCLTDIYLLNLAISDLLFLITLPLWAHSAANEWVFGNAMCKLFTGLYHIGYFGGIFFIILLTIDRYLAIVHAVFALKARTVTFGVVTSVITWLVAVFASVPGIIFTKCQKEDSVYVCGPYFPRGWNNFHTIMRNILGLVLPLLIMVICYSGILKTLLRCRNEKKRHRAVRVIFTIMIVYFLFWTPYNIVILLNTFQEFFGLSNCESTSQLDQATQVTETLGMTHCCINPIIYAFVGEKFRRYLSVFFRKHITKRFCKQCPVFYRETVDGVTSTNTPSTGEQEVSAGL
Particulars: for inhibition at 25 µM: read-out: Inhibition of MCP-1 Binding, percent inhibition.

pIC50: −log10 of the molar value. Where two headings read alike, the source gives them in different places.

For orientation: pIC50 means the IC50 on a negative log10 scale, so that one unit is a factor of ten. Compound `COC(=O)c1ccc(C2CCN(C(C(=O)O)C3CCN(C(=O)/C=C/c4cc(F)cc(F)c4)CC3)CC2)cc1` (centres unmarked) [Cpd 145, 4-[1-(carboxy-{1-[(2E)-3-(3,5-difluoro-phenyl)-acryloyl]-piperidin-4-yl}-methyl)-piperidin-4-yl]-benzoic acid methyl ester] had a pIC50 of 5.23.
Compound `COC(=O)NCC(C1CCN(C(=O)/C=C/c2cc(F)c(F)c(F)c2)CC1)N1CCC(c2c[nH]c3ccccc23)CC1` (centres unmarked) [Cpd 238, (2-[4-(1H-indol-3-yl)-piperidin-1-yl]-2-{1-[(2E)-3-(3,4,5-trifluoro-phenyl)-acryloyl]-piperidin-4-yl}-ethyl)-carbamic acid methyl ester] showed a pIC50 of 5.62.
Consider `COC(=O)C(C1CCN(C(=O)/C=C/c2cc(F)cc(F)c2)CC1)N1CCC(c2ccc(OC)cc2)CC1` (centres unmarked) [Cpd 3, {1-[(2E)-3-(3,5-difluoro-phenyl)-acryloyl]-piperidin-4-yl}-[4-(4-methoxy-phenyl)-piperidin-1-yl]-acetic acid methyl ester], for which the pIC50 was 5.42.
In turn, `COC(=O)NCC(C1CCN(C(=O)/C=C/c2ccc(Cl)c(Cl)c2)CC1)N1CCC(c2c[nH]c3ccccc23)CC1` (centres unmarked) [Cpd 240] showed a pIC50 of 5.34.
For `O=C(/C=C/c1cc(F)cc(F)c1)N1CCC(C(CO)N2CCC(c3ccccn3)CC2)CC1` (centres unmarked) [Cpd 200], the pIC50 is 5.70.
Turning to `O=CNCC(C1CCN(C(=O)/C=C/c2ccc(Cl)c(Cl)c2)CC1)N1CCC(c2c[nH]c3ccccc23)CC1` (centres unmarked) [Cpd 222], the pIC50 is 6.17.
As for `CCNC(=O)NCC(C1CCN(C(=O)/C=C/c2cccc(C)c2)CC1)N1CCC(c2c[nH]c3ccccc23)CC1` (centres unmarked) [Cpd 231], the pIC50 is 5.34.
`O=C(O)C(C1CCN(C(=S)Nc2cc(F)cc(F)c2)CC1)N1CCC(c2c[nH]c3ccccc23)CC1` (centres unmarked) [Cpd 55, [1-(3,5-difluoro-phenylthiocarbamoyl)-piperidin-4-yl]-[4-(1H-indol-3-yl)-piperidin-1-yl]-acetic acid] had a pIC50 of 6.94.
On the same count and under the same terms, for `O=C(O)C(C1CCN(C(=O)/C=C/c2ccc(Cl)c(Cl)c2)CC1)N1CCC(c2ccc(Cl)cc2)CC1` (centres unmarked) [Cpd 1, [4-(4-chloro-phenyl)-piperidin-1-yl]-{1-[(2E)-3-(3,4-dichloro-phenyl)-acryloyl]-piperidin-4-yl}-acetic acid] the value was 6.60.
Compound `O=C(/C=C/c1cc(F)c(F)c(F)c1)N1CCC(C(CO)N2CCC(c3coc4ncccc34)CC2)CC1` (centres unmarked) [Cpd 248, (2E)-1-{4-[1-(4-furo[2,3-b]pyridin-3-yl-piperidin-1-yl)-2-hydroxy-ethyl]-piperidin-1-yl}-3-(3,4,5-trifluoro-phenyl)-propenone] showed a pIC50 of 5.72.
In turn, `O=C(CC1CCN(C(C(=O)O)C2CCN(C(=O)/C=C/c3cc(F)c(F)c(F)c3)CC2)CC1)NCc1ccccc1` (centres unmarked) [Cpd 149] had a pIC50 of 4.78.
The compound `O=C(/C=C/c1cc(F)cc(F)c1)N1CCC(C(CO)N2CCC(c3nccs3)CC2)CC1` (centres unmarked) [Cpd 194, (2E)-3-(3,5-difluoro-phenyl)-1-{4-[2-hydroxy-1-(4-thiazol-2-yl-piperidin-1-yl)-ethyl]-piperidin-1-yl}-propenone] had a pIC50 of 5.64.
Same read-out and setting: for `O=C(O)C(C1CCN(C(=O)/C=C/c2cc(F)cc(F)c2)CC1)N1CCC(c2n[nH]c3ccccc23)CC1` (centres unmarked) [Cpd 177, {1-[(2E)-3-(3,5-difluoro-phenyl)-acryloyl]-piperidin-4-yl}-[4-(1H-indazol-3-yl)-piperidin-1-yl]-acetic acid] the value was 5.52; for `O=C(O)C(C1CCN(C(=O)Nc2ccc(Cl)cc2Cl)CC1)N1CCC(c2c[nH]c3ccccc23)CC1` (centres unmarked) [Cpd 111, [1-(2,4-dichloro-phenylcarbamoyl)-piperidin-4-yl]-[4-(1H-indol-3-yl)-piperidin-1-yl]-acetic acid], 4.95.
In turn, `O=C(O)C(C1CCN(C(=S)Nc2ccc(Cl)c(Cl)c2)CC1)N1CCC(c2c[nH]c3ccccc23)CC1` (centres unmarked) [Cpd 64, [1-(3,4-dichloro-phenylthiocarbamoyl)-piperidin-4-yl]-[4-(1H-indol-3-yl)-piperidin-1-yl]-acetic acid] had a pIC50 of 7.70.
On to `COc1ccc(NC(=O)N2CCC(C(C(=O)O)N3CCC(c4c[nH]c5ccccc45)CC3)CC2)cc1` (centres unmarked) [Cpd 69, [4-(1H-indol-3-yl)-piperidin-1-yl]-[1-(4-methoxy-phenylcarbamoyl)-piperidin-4-yl]-acetic acid], for which the negative logarithm of the IC50 (pIC50) was 4.85.
In the case of `O=CNCC(C1CCN(C(=O)Nc2ccc(Cl)c(Cl)c2)CC1)N1CCC(c2c[nH]c3ccccc23)CC1` (centres unmarked) [Cpd 226], the pIC50 was 5.68.
`COC(=O)C(C1CCN(C(=O)/C=C/c2cc(F)c(F)c(F)c2)CC1)N1CCC(c2c[nH]c3c(OC)cccc23)CC1` (centres unmarked) [Cpd 118, [4-(7-methoxy-1H-indol-3-yl)-piperidin-1-yl]-{1-[(2E)-3-(3,4,5-trifluoro-phenyl)-acryloyl]-piperidin-4-yl}-acetic acid methyl ester] showed a pIC50 of 5.49.
With `CCNC(=O)NCC(C1CCN(C(=O)/C=C/c2ccc(Cl)c(Cl)c2)CC1)N1CCC(c2c[nH]c3ccccc23)CC1` (centres unmarked) [Cpd 230], the pIC50 is 5.68.
Still for that read-out and setting: then `N=C(NC(=O)c1cc(F)cc(F)c1)N1CCC(C(C(=O)O)N2CCC(c3c[nH]c4ccccc34)CC2)CC1` (centres unmarked) [Cpd 51, {1-[(3,5-difluoro-benzoylamino)-imino-methyl]-piperidin-4-yl}-[4-(1H-indol-3-yl)-piperidin-1-yl]-acetic acid], with 6.52.
`CCNC(=O)NCC(C1CCN(C(=O)/C=C/c2cc(F)cc(F)c2)CC1)N1CCC(c2c[nH]c3ccccc23)CC1` (centres unmarked) [Cpd 229] showed a pIC50 of 5.77.
`O=C(/C=C/c1cc(F)c(F)c(F)c1)N1CCC(C(CO)N2CCC(c3nccs3)CC2)CC1` (centres unmarked) [Cpd 195] had a pIC50 of 5.48.
As for `COc1cccc2c(C3CCN(C(CO)C4CCN(C(=O)OC(C)(C)C)CC4)CC3)c[nH]c12` (centres unmarked) [Cpd 131, 4-{2-hydroxy-1-[4-(7-methoxy-1H-indol-3-yl)-piperidin-1-yl]-ethyl}-piperidine-1-carboxylic acid tert-butyl ester], the negative-log IC50 (pIC50) was 5.41.
Compound `COC(=O)c1ccc(NC(=O)N2CCC(C(C(=O)O)N3CCC(c4c[nH]c5ccccc45)CC3)CC2)cc1` (centres unmarked) [Cpd 68, 4-[(4-{carboxy-[4-(1H-indol-3-yl)-piperidin-1-yl]-methyl}-piperidine-1-carbonyl)-amino]-benzoic acid methyl ester] had a pIC50 of 5.45.
On to `O=C(O)C(C1CCN(C(=O)Nc2ccc(F)cc2)CC1)N1CCC(c2c[nH]c3ccccc23)CC1` (centres unmarked) [Cpd 90, [1-(4-fluoro-phenylcarbamoyl)-piperidin-4-yl]-[4-(1H-indol-3-yl)-piperidin-1-yl]-acetic acid], for which the pIC50 was 6.32.
As for `COc1ccc(C2CCN(C(CO)C3CCN(C(=O)/C=C/c4cc(F)c(F)cc4F)CC3)CC2)cc1` (centres unmarked) [Cpd 140, (2E)-1-(4-{2-hydroxy-1-[4-(4-methoxy-phenyl)-piperidin-1-yl]-ethyl}-piperidin-1-yl)-3-(2,4,5-trifluoro-phenyl)-propenone], the pIC50 (read-out: Inhibition of MCP-1 Binding IC50, 125I labeled MCP-1 binding to CCR2, THP-1 cells) was 5.80.
Regarding `O=C(/C=C/c1cc(F)cc(F)c1)N1CCC(C(CO)N2CCC(c3ccc(Cl)cc3)CC2)CC1` (centres unmarked) [Cpd 249, (2E)-1-(4-{1-[4-(4-chloro-phenyl)-piperidin-1-yl]-2-hydroxy-ethyl}-piperidin-1-yl)-3-(3,5-difluoro-phenyl)-propenone], the pIC50 is 7.70.
The same measure, in the same setting: for `O=C(O)C(C1CCN(C(=O)Nc2ccc(Cl)cc2F)CC1)N1CCC(c2c[nH]c3ccccc23)CC1` (centres unmarked) [Cpd 117, [1-(4-chloro-2-fluoro-phenylcarbamoyl)-piperidin-4-yl]-[4-(1H-indol-3-yl)-piperidin-1-yl]-acetic acid] the value was 6.00; for `Cc1ccc(NC(=S)N2CCC(C(C(=O)O)N3CCC(c4c[nH]c5ccccc45)CC3)CC2)cc1` (centres unmarked) [Cpd 78, [4-(1H-indol-3-yl)-piperidin-1-yl]-(1-p-tolylthiocarbamoyl-piperidin-4-yl)-acetic acid], 6.85.
For the compound `CCOC(=O)C(C1CCN(C(=O)/C=C/c2cc(F)c(F)c(F)c2)CC1)N1CCC(c2c[nH]c3ncccc23)CC1` (centres unmarked) [Cpd 152, [4-(1H-pyrrolo[2,3-b]pyridin-3-yl)-piperidin-1-yl]-{1-[(2E)-3-(3,4,5-trifluoro-phenyl)-acryloyl]-piperidin-4-yl}-acetic acid ethyl ester], the pIC50 is 5.72.
In general, inhibition refers to the drop in the measured response relative to a control, in per cent. In the case of `COC(=O)NCC(C1CCN(C(=O)/C=C/c2cccc(C)c2)CC1)N1CCC(c2c[nH]c3ccccc23)CC1` (centres unmarked) [Cpd 241], the inhibition at 25 µM came out at 58%.
In the case of `O=C(/C=C/c1ccc(C(F)(F)F)cc1)N1CCC(C(CCl)N2CCC(c3ccc(Cl)cc3)CC2)CC1` (centres unmarked) [Cpd 247, (2E)-1-(4-{2-chloro-1-[4-(4-chloro-phenyl)-piperidin-1-yl]-ethyl}-piperidin-1-yl)-3-(4-trifluoromethyl-phenyl)-propenone], the inhibition at 25 µM turned out to be 53%.
In turn, `COCC(C1CCN(C(=O)/C=C/c2cc(F)cc(F)c2)CC1)N1CCC(c2ccc(OC)cc2)CC1` (centres unmarked) [Cpd 255, (2E)-3-(3,5-difluoro-phenyl)-1-(4-{2-methoxy-1-[4-(4-methoxy-phenyl)-piperidin-1-yl]-ethyl}-piperidin-1-yl)-propenone] had a pIC50 of 5.62.
For `CS(=O)(=O)Nc1ccc(C2CCN(C(CO)C3CCN(C(=O)/C=C/c4cc(F)c(F)c(F)c4)CC3)CC2)cc1` (centres unmarked) [Cpd 209, N-{4-[1-(2-hydroxy-1-{1-[(2E)-3-(3,4,5-trifluoro-phenyl)-acryloyl]-piperidin-4-yl}-ethyl)-piperidin-4-yl]-phenyl}-methanesulfonamide], the inhibition at 25 µM is 52%.
The compound `CCNC(=O)NCC(C1CCN(C(=O)/C=C/c2cc(F)c(F)c(F)c2)CC1)N1CCC(c2c[nH]c3ccccc23)CC1` (centres unmarked) [Cpd 228] gave a negative-log IC50 (pIC50) of 5.62.
